Some results are limits rather than exact numbers.

The subject of one assay is MDA-MB-435. Nature of the assay: Cell proliferation inhibition assay (MTT). The format is cell-based, human. As to conditions: Homo sapiens; MDA-MB-435; MTT, 72 hours; read-out: Proliferative inhibitory activity MDA-MB-435 (IC50 class).
For the next assay, the target named is c-Src(1-530) (Homo sapiens (Human), UniProt P12931). Nature of the assay: Kinase inhibition assay (KinaseProfiler, 33P-ATP). As to conditions: c-Src(1-530); ATP at Km.
Sequence of c-Src(1-530) (P12931 whole entry, looked up): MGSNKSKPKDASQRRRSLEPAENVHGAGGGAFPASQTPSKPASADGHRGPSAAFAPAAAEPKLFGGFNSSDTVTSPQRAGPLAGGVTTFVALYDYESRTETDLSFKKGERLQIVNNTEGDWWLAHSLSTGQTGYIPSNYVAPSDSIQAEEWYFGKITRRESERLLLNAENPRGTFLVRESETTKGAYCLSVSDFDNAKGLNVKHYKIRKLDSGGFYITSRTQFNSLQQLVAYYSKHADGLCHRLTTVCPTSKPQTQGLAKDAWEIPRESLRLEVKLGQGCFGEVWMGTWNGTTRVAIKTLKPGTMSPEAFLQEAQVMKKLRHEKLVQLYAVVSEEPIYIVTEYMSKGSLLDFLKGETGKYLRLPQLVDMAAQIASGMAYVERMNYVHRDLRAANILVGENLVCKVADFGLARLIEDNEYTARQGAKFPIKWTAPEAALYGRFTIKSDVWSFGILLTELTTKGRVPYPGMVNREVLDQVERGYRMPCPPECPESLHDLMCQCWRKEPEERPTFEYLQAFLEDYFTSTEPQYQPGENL
For a further assay, the system named is MDA-MB-231. In words: Cell proliferation inhibition assay (MTT). As to conditions: Homo sapiens; MDA-MB-231; MTT, 72 hours; read-out: Proliferative inhibitory activity MDA-MB-231 (IC50 class). The format is cell-based, human.

Experimental for MDA-MB-231: (§1) The remaining cell lines were cultured in DMEM complete medium containing 10% fetal bovine serum (MV4-11 cells 20%), 100 U/ml penicillin, 100 μg/mL streptomycin at 5% CO2, and 37° C.
(§2) The cells were seeded in 96-well plates with 200 μL of cell suspension per well and incubated overnight in a cell culture medium with a cell concentration of 1˜2×10^4 cells/mL. The next day, the supernatant was discarded (the suspension cell was centrifuged before it) and the cells were treated with gradient concentrations of the test compound, respectively. At the same time, the drug-free negative control group and the equal volume of solvent control group, DMSO concentration of 0.1%, each dose group set up three wells, 37° C., 5% CO2 conditions. After 72 hours, add 20 μL of MTT reagent at a concentration of 5 mg/mL per well. After incubation for 2-4 h, the supernatant was discarded and 150 μL of DMSO was added to each well. […] Determine the absorbance (A) value (λ=570 nm, A value is proportional to the number of living cells), whichever is the average. […] The experiment was repeated at least 3 times. Experimental data were expressed as mean, data statistics using t test, P<0.05 for the difference was statistically significant. The inhibitory effects of the following compounds on cell proliferation were expressed as IC50 or inhibition rates.
Experimental for MDA-MB-435: as §1, §2

Turning to `Cc1ccc(C(=O)Nc2ccc(CN3CCN(C)CC3)c(C(F)(F)F)c2)cc1C#Cc1nn(C2CCC2)c2ncnc(N)c12` [Compound 6], the IC50 was less than 0.1 µM in the assay on MDA-MB-435, 0.009 µM at c-Src(1-530) and less than 0.1 µM with MDA-MB-231.

Consider `Cc1ccc(C(=O)Nc2ccc(CN3CCN(C)CC3)c(C(F)(F)F)c2)cc1C#Cc1nn(C2CCCC2)c2ncnc(N)c12` [Compound 7], for which the IC50 in the assay on MDA-MB-435 is less than 0.1 µM; against c-Src(1-530), 0.019 µM; with MDA-MB-231, less than 0.1 µM.

With `Cc1ccc(C(=O)Nc2ccc(CN3CCN(C)CC3)c(C(F)(F)F)c2)cc1C#Cc1nn(C)c2ncnc(N)c12` [Compound 8], the IC50 was less than 0.1 µM in the assay on MDA-MB-435, 0.007 µM on c-Src(1-530) and less than 0.1 µM in the assay with MDA-MB-231.

As for `CC(C)n1nc(C#Cc2cc(C(=O)Nc3ccc(CN4CCN(C)CC4)c(C(F)(F)F)c3)ccc2Cl)c2c(N)ncnc21` [Compound 9], the results for the IC50 in the assay with MDA-MB-435, against c-Src(1-530) and with MDA-MB-231 were less than 0.1 µM, 0.015 µM and 0.1 to 0.5 µM, respectively.

On to `Cc1ccc(NC(=O)c2ccc(Cl)c(C(F)(F)F)c2)cc1C#Cc1nn([C@@H]2CCN(C(=O)[C@H](C)O)C2)c2ncnc(N)c12` [Compound 72], for which the IC50 in the assay with MDA-MB-435 was greater than 1 µM; in the assay on MDA-MB-231 it was less than 0.1 µM.

Turning to `Cc1ccc(NC(=O)c2ccc(Cl)c(C(F)(F)F)c2)cc1C#Cc1nn([C@@H]2CCN(C(=O)[C@@H](C)O)C2)c2ncnc(N)c12` [Compound 73], the IC50 with MDA-MB-435 is greater than 1 µM; in the assay on MDA-MB-231 it was less than 0.1 µM.

Consider `Cc1ccc(NC(=O)c2ccc(Cl)c(C(F)(F)F)c2)cc1C#Cc1nn(C2CCC(O)CC2)c2ncnc(N)c12` (stereo not drawn) [Compound 74], for which the IC50 in the assay with MDA-MB-435 and in the assay on MDA-MB-231 was less than 0.1 µM each time.

Take `Cc1ccc(NC(=O)c2ccc(Cl)c(C(F)(F)F)c2)cc1C#Cc1nn(CC2CCN(S(C)(=O)=O)CC2)c2ncnc(N)c12` [Compound 75]: the figures for the IC50 with MDA-MB-435 and with MDA-MB-231 were greater than 1 µM and 0.1 to 0.5 µM, respectively.

With `Cc1ccc(NC(=O)c2ccc(Cl)c(C(F)(F)F)c2)cc1C#Cc1nn(CC2CCN(S(C)(=O)=O)C2)c2ncnc(N)c12` (stereo not drawn) [Compound 76], the figures for the half-inhibitory concentration (IC50) with MDA-MB-435 and with MDA-MB-231 were 0.1 to 0.5 µM and less than 0.1 µM, respectively.

As for `Cc1ccc(NC(=O)c2ccc(Cl)c(C(F)(F)F)c2)cc1C#Cc1nn(C2CCC2)c2ncnc(N)c12` [Compound 77], the 50% inhibitory concentration (IC50) in the assay with MDA-MB-435 is greater than 1 µM; in the assay with MDA-MB-231 it was 0.5 to 1 µM.

In the case of `Cc1ccc(NC(=O)c2ccc(Cl)c(C(F)(F)F)c2)cc1C#Cc1nn(C2CCCC2)c2ncnc(N)c12` [Compound 78], the IC50 with MDA-MB-435 is 0.5 to 1 µM; with MDA-MB-231, less than 0.1 µM.

For the compound `Cc1ccc(NC(=O)c2ccc(Cl)c(C(F)(F)F)c2)cc1C#Cc1nn(CC2CCN(C)CC2)c2ncnc(N)c12` [Compound 79], the IC50 is 0.5 to 1 µM with MDA-MB-435 and less than 0.1 µM in the assay on MDA-MB-231.

With `Cc1ccc(NC(=O)c2ccc(Cl)c(C(F)(F)F)c2)cc1C#Cc1nn(CC(=O)N2CCOCC2)c2ncnc(N)c12` [Compound 80], the IC50 was greater than 1 µM in the assay on MDA-MB-435 and less than 0.1 µM with MDA-MB-231.

`Cc1ccc(NC(=O)c2ccc(Cl)c(C(F)(F)F)c2)cc1C#Cc1nn(C2CCN(S(C)(=O)=O)CC2)c2ncnc(N)c12` [Compound 81]: the IC50 in the assay with MDA-MB-435 was 0.1 to 0.5 µM; in the assay with MDA-MB-231 it was less than 0.1 µM.

With `Cc1ccc(NC(=O)c2ccc(Cl)c(C(F)(F)F)c2)cc1C#Cc1nn(C[C@@H](C)CO)c2ncnc(N)c12` [Compound 82], the IC50 is 0.1 to 0.5 µM with MDA-MB-435 and less than 0.1 µM in the assay on MDA-MB-231.

Take `Cc1ccc(NC(=O)c2ccc(Cl)c(C(F)(F)F)c2)cc1C#Cc1nn(C[C@H](C)CO)c2ncnc(N)c12` [Compound 83]: the IC50 with MDA-MB-435 is 0.1 to 0.5 µM; with MDA-MB-231, less than 0.1 µM.

Regarding `Cc1ccc(NC(=O)c2ccc(Cl)c(C(F)(F)F)c2)cc1C#Cc1nn([C@@H]2CCN(S(C)(=O)=O)C2)c2ncnc(N)c12` [Compound 84], the values for the IC50 in the assay on MDA-MB-435 and in the assay with MDA-MB-231 were 0.1 to 0.5 µM and less than 0.1 µM, respectively.

Take `Cc1ccc(NC(=O)c2ccc(Cl)c(C(F)(F)F)c2)cc1C#Cc1nn([C@@H]2CCN(C)C2)c2ncnc(N)c12` [Compound 85]: the IC50 in the assay with MDA-MB-435 was greater than 1 µM; in the assay with MDA-MB-231, less than 0.1 µM.

As to `Cc1ccc(NC(=O)c2ccc(Cl)c(C(F)(F)F)c2)cc1C#Cc1nn(C2CCCN(C(=O)[C@H](C)O)C2)c2ncnc(N)c12` (stereo partly drawn) [Compound 86], the IC50 in the assay on MDA-MB-435 is greater than 1 µM; in the assay on MDA-MB-231 it was less than 0.1 µM.

For `Cc1ccc(NC(=O)c2ccc(Cl)c(C(F)(F)F)c2)cc1C#Cc1nn(C2CCCN(C(=O)[C@@H](C)O)C2)c2ncnc(N)c12` (stereo partly drawn) [Compound 87], the IC50 in the assay on MDA-MB-435 is greater than 1 µM; with MDA-MB-231 it was less than 0.1 µM.

On to `Cc1ccc(NC(=O)c2ccc(Cl)c(C(F)(F)F)c2)cc1C#Cc1nn([C@@H]2CCCN(C(=O)[C@@H](C)O)C2)c2ncnc(N)c12` [Compound 88], for which the values for the IC50 with MDA-MB-435 and with MDA-MB-231 were 0.1 to 0.5 µM and less than 0.1 µM, respectively.

Regarding `Cc1ccc(NC(=O)c2ccc(Cl)c(C(F)(F)F)c2)cc1C#Cc1nn([C@@H]2CCCN(C)C2)c2ncnc(N)c12` [Compound 89], the IC50 was 0.1 to 0.5 µM in the assay with MDA-MB-435 and less than 0.1 µM with MDA-MB-231.

Turning to `Cc1ccc(NC(=O)c2ccc(Cl)c(C(F)(F)F)c2)cc1C#Cc1nn([C@@H]2CCCN(S(C)(=O)=O)C2)c2ncnc(N)c12` [Compound 90], the IC50 with MDA-MB-435 was 0.5 to 1 µM; in the assay with MDA-MB-231, less than 0.1 µM.

Consider `Cc1ccc(NC(=O)c2ccc(Cl)c(C(F)(F)F)c2)cc1C#Cc1nn(C2CCCN(S(C)(=O)=O)C2)c2ncnc(N)c12` (stereo not drawn) [Compound 91], for which the IC50 in the assay on MDA-MB-435 was 0.1 to 0.5 µM; in the assay on MDA-MB-231, less than 0.1 µM.

Turning to `Cc1ccc(NC(=O)c2ccc(Cl)c(C(F)(F)F)c2)cc1C#Cc1nn(C2CCCN(C)C2)c2ncnc(N)c12` (stereo not drawn) [Compound 92], the IC50 was 0.1 to 0.5 µM with MDA-MB-435 and less than 0.1 µM with MDA-MB-231.

Turning to `Cc1ccc(NC(=O)c2nc(C(C)(C)C)cs2)cc1C#Cc1nn(CC2CCN(C)C2)c2ncnc(N)c12` (stereo not drawn) [Compound 94], the IC50 in the assay with MDA-MB-435 and in the assay on MDA-MB-231 was 0.1 to 0.5 µM each time.

In the case of `Cc1ccc(NC(=O)c2nc(C(C)(C)C)cs2)cc1C#Cc1nn(C[C@@H](C)CO)c2ncnc(N)c12` [Compound 95], the figures for the IC50 in the assay with MDA-MB-435 and in the assay on MDA-MB-231 were less than 0.1 µM and 0.1 to 0.5 µM, respectively.

Take `Cc1ccc(NC(=O)c2nc(C(C)(C)C)cs2)cc1C#Cc1nn(CC2CCN(C)CC2)c2ncnc(N)c12` [Compound 96]: the IC50 in the assay on MDA-MB-435 and in the assay with MDA-MB-231 was 0.1 to 0.5 µM in each case.

For the compound `Cc1ccc(NC(=O)c2nc(C(C)(C)C)cs2)cc1C#Cc1nn([C@@H]2CCN(C)C2)c2ncnc(N)c12` [Compound 97], the IC50 in the assay with MDA-MB-435 and with MDA-MB-231 was 0.1 to 0.5 µM in each case.

Take `Cc1ccc(NC(=O)c2ccc(C)c(C(F)(F)F)c2)cc1C#Cc1nn(CC2CCN(C)C2)c2ncnc(N)c12` (stereo not drawn) [Compound 98]: the IC50 in the assay with MDA-MB-435 and with MDA-MB-231 was less than 0.1 µM in each case.

On to `Cc1ccc(NC(=O)c2ccc(C)c(C(F)(F)F)c2)cc1C#Cc1nn(C[C@@H](C)CO)c2ncnc(N)c12` [Compound 99], for which the IC50 is 0.1 to 0.5 µM in the assay on MDA-MB-435 and less than 0.1 µM with MDA-MB-231.

On to `Cc1ccc(NC(=O)c2cccc(C(F)(F)F)c2)cc1C#Cc1nn(C[C@@H](C)CO)c2ncnc(N)c12` [Compound 101], for which the IC50 in the assay on MDA-MB-435 and in the assay on MDA-MB-231 was less than 0.1 µM each time.

Consider `CCn1nc(C#Cc2cc(NC(=O)c3ccc(CN4CCN(C)CC4)c(C(F)(F)F)c3)ccc2C)c2c(N)ncnc21` [Compound 102], for which the IC50 in the assay on MDA-MB-435 and with MDA-MB-231 was less than 0.1 µM each time.

Regarding `Cc1ccc(C(=O)Nc2cccc(C(F)(F)F)c2)cc1C#Cc1nn([C@H]2CC[C@H](O)CC2)c2ncnc(N)c12` [Compound 103], the IC50 with MDA-MB-435 and in the assay on MDA-MB-231 was less than 0.1 µM in each case.

For `CCNc1ncnc2c1c(C#Cc1cc(C(=O)Nc3cccc(C(F)(F)F)c3)ccc1C)nn2CC` [Compound 104], the half-maximal inhibitory concentration (IC50) in the assay on MDA-MB-435 and in the assay on MDA-MB-231 was 0.1 to 0.5 µM each time.

Turning to `Cc1ccc(C(=O)Nc2cccc(C(F)(F)F)c2)cc1C#Cc1nn(C[C@@H](C)CO)c2ncnc(N)c12` [Compound 105], the IC50 in the assay on MDA-MB-435 was 0.1 to 0.5 µM; with MDA-MB-231, less than 0.1 µM.

For the compound `Cc1ccc(C(=O)Nc2cccc(C(F)(F)F)c2)cc1C#Cc1nn(C[C@H](C)CO)c2ncnc(N)c12` [Compound 106], the IC50 in the assay on MDA-MB-435 and in the assay on MDA-MB-231 was less than 0.1 µM each time.

With `Cc1ccc(C(=O)Nc2cccc(C(F)(F)F)c2)cc1C#Cc1nn([C@@H]2CCN(C)C2)c2ncnc(N)c12` [Compound 107], the IC50 with MDA-MB-435 and in the assay with MDA-MB-231 was less than 0.1 µM throughout.

Consider `Cc1ccc(C(=O)Nc2cccc(C(F)(F)F)c2)cc1C#Cc1nn(CC2CCN(C)C2)c2ncnc(N)c12` (stereo not drawn) [Compound 108], for which the IC50 in the assay with MDA-MB-435 was 0.1 to 0.5 µM; in the assay with MDA-MB-231, less than 0.1 µM.

For `Cc1ccc(C(=O)Nc2cccc(C(F)(F)F)c2)cc1C#Cc1nn(CC2CCN(C)CC2)c2ncnc(N)c12` [Compound 109], the half-maximal inhibitory concentration (IC50) in the assay on MDA-MB-435 and in the assay on MDA-MB-231 was less than 0.1 µM throughout.

On to `Cc1ccc(NC(=O)c2ccc(C)c(C(F)(F)F)c2)cc1C#Cc1nn(C[C@H](C)CO)c2ncnc(N)c12` [Compound 110], for which the IC50 with MDA-MB-435 and with MDA-MB-231 was less than 0.1 µM in each case.

Take `Cc1ccc(NC(=O)c2cccc(C(F)(F)F)c2)cc1C#Cc1nn(C[C@H](C)CO)c2ncnc(N)c12` [Compound 111]: the 50% inhibitory concentration (IC50) in the assay with MDA-MB-435 and in the assay with MDA-MB-231 was less than 0.1 µM each time.

On to `Cc1ccc(NC(=O)c2ccc(C)c(C(F)(F)F)c2)cc1C#Cc1nn(CC2CCN(C)CC2)c2ncnc(N)c12` [Compound 115], for which the IC50 in the assay with MDA-MB-435 is 0.1 to 0.5 µM; with MDA-MB-231, less than 0.1 µM.

With `Cc1ccc(NC(=O)c2ccc(C)c(C(F)(F)F)c2)cc1C#Cc1nn([C@@H]2CCN(C)C2)c2ncnc(N)c12` [Compound 116], the IC50 in the assay with MDA-MB-435 and in the assay with MDA-MB-231 was 0.1 to 0.5 µM throughout.

In the case of `Cc1ccc(NC(=O)c2cccc(C(C)(C)C)c2)cc1C#Cc1nn([C@H]2CC[C@H](O)CC2)c2ncnc(N)c12` [Compound 118], the IC50 with MDA-MB-435 and in the assay with MDA-MB-231 was less than 0.1 µM throughout.

With `CCn1nc(C#Cc2cc(C(=O)Nc3cccc(C(F)(F)F)c3)ccc2C)c2c(N)ncnc21` [Compound 119], the IC50 in the assay on MDA-MB-435 and in the assay on MDA-MB-231 was 0.1 to 0.5 µM in each case.

The values are drawn from patent US10266537B2, “3-acetylenyl-pyrazole-pyrimidine derivative, and preparation method therefor and uses thereof” (Si Chuan University, priority 2015, dated 2019).
